Series [1] deals with HCT 116 (human colorectal carcinoma). Kind of series: Anti-proliferative activity test (CellTiter-Glo), HCT 116. It is filed as cell-based. To be noted: HCT 116, colon cancer. How it is done: (§1) Six hundred cells in 90 media were plated per well in duplicates in a 96-well plate. Cells were incubated in a humidified incubator at 37° C. with 5% CO2 during the assay. DMSO was added to the test compounds with the final DMSO concentration being 0.1% [v/v] of the culture. 100 μl of CellTiter-Glo® was added to the equal volume of cultured cells to read luminescence in EnVision Multi Label Reader.

Series [2] is described as follows: Rat pharmacokinetics of Compound 12. Type of series: in vivo, SD rats. To be noted: SD, plasma, 10 mg/kg. How it is done:
(§2) Pharmacokinetics of Compound 12 prepared in Example 1 were evaluated in ICR mice and SD rats following intravenous (IV) administration at 10 mg/kg and peroral (PO) administration at 10 mg/kg dose level, respectively.
(§3) For serum compound analysis, blood samples were collected by cardiac puncture over 24 hr time course. 20 μl of spiked plasma was added into 96 well plate, adding ten volumes of internal standard (IS) in acetonitrile (ACN) to precipitate proteins, mixed fully, centrifuged for 10 min at 4,000 rpm. 150 μl of supernatant was transferred to another pre-labeled 96 well plate, mixed with 150 μl of water, then injected 5 μl or 10 μl into the liquid chromatography-mass spectrometry (LC-MS) system under the following conditions:
(§4) Column: API-4000+Waters UPLC (TCLM08);
(§5) Lower limit of quantification (LLOQ) was at 1 ng/mL. Pharmacokinetic parameters of half-life (T1/2), clearance (CL), maximum plasma concentration (Cmax), time when the maximal serum concentration of compound is achieved (Tmax) and bioavailability (F %), exposure (AUC) and volume of distribution (Vss) of the compound were calculated using Phoenix WinNonlin 6.3 (non-compartmental model).

In series [3] the test system is HL-60 human leukemia xenograft. Briefly: Tumor growth inhibition of IP-administered Compound 12 in HL-60 human leukemia xenograft. It is filed as in vivo, NOD/SCID female mice. As for the experimental part: Tumor growth inhibition activities of IP-administered Ara-C and Compound 12 were compared in HL-60 human leukemia xenograft.
NOD/SCID female mice of 6-8 weeks age and weighing approximately 18 to 22 g, were used for tumor inoculation. Each mouse was inoculated subcutaneously at the right flank with HL-60 tumor cells (1×10^7 cells) in mixture of 100 μl of PBS and 100 of μl Matrigel™ for tumor development. Eight mice were used for each group (n=8/group). The amounts of treated compounds are represented in milligram (mg) of compound per kilogram (kg) of animal body weight (mg/kg, mpk). Administration route of all test compounds was through IP injection. […] The overall administration schedule was 2 cycles of compound treatment for 5 days, followed by 2 days of non-treatment. Tumor sizes were measured using a caliper, once every 4 days, and the tumor volume was expressed in mm^3 using Equation 1.
The tumor volume (mm^3) and body weight (g) results of five groups are shown in FIGS. 5A and 5B, respectively.

Series [4] is described as follows: Mouse pharmacokinetics of Compound 12. Type of series: in vivo, ICR mice. To be noted: ICR, plasma, 10 mg/kg. How it is done: as §2, §3, §4, §5
For series [5], the system named is MOLT-4 (human acute lymphoblastic leukemia). Briefly: Anti-proliferative activity test (CellTiter-Glo), MOLT-4. Type of series: cell-based. To be noted: MOLT-4, hematological. How it is done: as §1
Background: ATP-based viability assays read luminescence as a measure of living cells.

Series [6] has as its system HL-60 (human acute promyelocytic leukemia). Briefly: Anti-proliferative activity test (CellTiter-Glo), HL-60. It is filed as cell-based. To be noted: HL-60, hematological. How it is done:
as §1

The test system of series [7] is HL-60 human leukemia xenograft. Kind of series: Efficacy of PO-administered Compound 12 in HL-60 human leukemia xenograft. Type of series: in vivo, NOD/SCID female mice. To be noted: 5 d ON/2 d Off × 2. As for the experimental part: Tumor growth inhibition (TGI) activities of IP-administered Ara-C, and PO-administered Compound 12 were compared in HL-60 human leukemia xenografts.
NOD/SCID female mice of 6-8 weeks age and weighing approximately 18 to 22 g, were used for tumor inoculation. Each mouse was inoculated subcutaneously at the right flank with HL-60 cancer cells (1×10^7 cells) in mixture of 100 μl of PBS and 100 μl of Matrigel™ for tumor development. Eight mice were used for each group (n=8/group). The amounts of treated compounds are represented in milligram (mg) of compound per kilogram (kg) of animal body weight (mg/kg, mpk). Administration route of the test compound was either intraperitoneal (IP) injection or peros (PO, oral) injection. […] The overall administration schedule was 2 cycles of treatment for 5 days (5 d ON), followed by 2 days of non-treatment (2 d OFF). Tumor sizes were measured using a caliper, once every 4 days, and the tumor volume was expressed in mm^3 using Equation 1: V=0.5a×b^2 [Equation 1]
Wherein, a and b are the long and short diameters of the tumor, respectively.
The tumor volume (mm^3) and body weight (g) results of the three groups are shown in FIGS. 4A and 4B, respectively.
In general terms: Xenograft models place foreign cells or tissue in a host animal.

Series [8] deals with MV-4-11 (human biphenotypic B myelomonocytic leukemia). Kind of series: Anti-proliferative activity test (CellTiter-Glo), MV-4-11. Conditions: MV-4-11, hematological. Type of series: cell-based. As for the experimental part:
as §1

Series [9] relates to Hep G2 (human hepatocellular carcinoma). Kind of series: Anti-proliferative activity test (CellTiter-Glo), Hep G2. It is filed as cell-based. Conditions: Hep G2, liver cancer. How it is done:
as §1

A short description of series [10]: Pharmacokinetics of Compounds 16, 22 and 23. Type of series: in vivo, SCID/mice. Conditions: SCID, mouse, plasma. As for the experimental part:
Pharmacokinetics of Compound 16 (Comparative example) prepared in step 3 of Example 2, and mutual prodrugs of Compounds 22 and 23 prepared in Example 3 and 4, respectively, were evaluated in SCID/mice following oral (PO) and intravenous (IV) administration according to the route/dose as shown in Table 4.
Blood samples were collected over 24 hrs, and plasma samples were prepared. Plasma concentrations of the test compounds were analyzed by LC/MS/MS. The maximum plasma concentration (Cmax), exposure (AUC), bioavailability (F %), half-life (T1/2), clearance (CL), volume of distribution (Vss), time when the maximal serum concentration of compound is achieved (Tmax) and mean residence time (MRT) were calculated as were in Test Example 3.

For the next series, the system named is MOLT-4 xenograft. Kind of series: Tumor growth inhibition of Compounds 22 and 23 in MOLT-4 xenograft. Type of series: in vivo, mice.
Series [11] concerns the target T1, recombinant human cytidine deaminase (CDA) (Homo sapiens, UniProt P32320).
T1 construct: His6; host or cells: E. coli
Kind of series: Cytidine deaminase (CDA) assay. Type of series: biochemical.

Where [12] appears, read: 150 mpk, 5 d ON/2 d OFF × 2, FIG. 6.

Usually IC50 stands for the point on the concentration scale where inhibition reaches its midpoint. A higher IC50 goes with weaker potency in that assay. A word on the clearance: it is the rate of elimination divided by the concentration. A low value points to a low capacity for elimination. The term half-life denotes the time needed for the level to fall by half in the phase considered. Broadly, the bioavailability is the share of a dose that reaches the circulation, judged against a reference dose that is usually intravenous. By AUC is commonly meant concentration integrated over time. In general, Cmax refers to the highest concentration seen after dosing. As usually defined, the MRT is a mean duration of stay, worked out from the concentration-time curve. As a reminder, the Tmax is the time from dosing to the highest level. The TGI is how far tumour growth fell short of that in controls. Higher therefore signals a stronger effect on the tumour.

T1 sequence (P32320 whole entry): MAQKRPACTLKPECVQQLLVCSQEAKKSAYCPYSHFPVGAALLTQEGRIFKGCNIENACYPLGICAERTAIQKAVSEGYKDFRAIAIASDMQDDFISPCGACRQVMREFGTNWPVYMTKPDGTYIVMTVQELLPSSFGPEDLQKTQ

Regarding `CCCC(=O)OC[C@H]1O[C@@](C#N)(n2ccc(N)nc2=O)[C@@H](O)[C@@H]1O` [Compound 12, ((2R,3S,4S,5R)-5-(4-amino-2-oxopyrimidin-1(2H)-yl)-5-cyano-3,4-dihydroxytetrahydrofuran-2-yl)methyl Butyrate], the IC50 in [1] (Homo sapiens) turned out to be 220 nM; in [5] (Homo sapiens), 1140 nM; in series [6] (Homo sapiens) it was 5060 nM; in series [8] (Homo sapiens, MV4-11) it was 130 nM; in series [9] (Homo sapiens, HepG2), 560 nM. The clearance in series [2] (IV) was 11.4 mL/min/kg; in [4] (IV) it was 21.6 mL/min/kg. For the same compound, the half-life is 3.1 h in [2] (IV), 2.5 h in series [2] (PO), 3.1 h in series [4] (IV) and 4.6 h in series [4] (PO). In addition, the bioavailability came to 48.8% in series [2] (PO) and 62% in series [4] (PO). In addition, the “TGI (%)” value in series [3] (20 mpk) came to 36%; in series [3] (40 mpk), 46%; in series [3] (60 mpk) it was 59%. The “% BW change” value in series [7] (60 mpk, PO) is reported as −0.9%. Besides, the “% TGI” value in series [7] (60 mpk, PO) amounted to 50%.
For `CCCC(=O)OC[C@H]1O[C@@H](n2cccnc2=O)[C@H](OC(=O)CCC)[C@@H]1OC(=O)CCC` [Compound 22, (2R,3R,4R,5R)-2-((butyryloxy)methyl)-5-(2-oxopyrimidin-1(2H)-yl)tetrahydrofuran-3,4-diyl Dibutyrate], in series [10] (75 mg/kg, PO/75 mpk), the AUC came out at 500 ng·h/mL and the Cmax is 0.88 µM. Also, in series [10] (150 mg/kg, PO/150 mpk), the AUC came to 1100 ng·h/mL, the Cmax was found to be 4.4 µM, the MRT amounted to 1.2 h and the Tmax is 0.5 h. In series [10] (150 mg/kg, PO/150 mpk), the bioavailability is 2.7% and the half-life was 1.6 h. In addition, in the series on MOLT-4 xenograft (setting [12]), the inhibition of tumour growth (TGI) was determined as 40%.
For the compound `N#C[C@@]1(n2ccc(N)nc2=O)O[C@H](CO)[C@@H](O)[C@@H]1O` [Compound 11], the concentration for half-maximal inhibition (IC50) came to 960 nM in series [1]; 1060 nM in series [5]; 2410 nM in series [6]; 5000 nM in series [8]; 6000 nM in [9]. In addition, the “susceptibility to deamination by CDA” value in series [11] is on record as “resistant to deamination by CDA”. In addition, the Relative rxn velocity in [11] (0.01 mM substrate, 25° C., OD282, relative to cytidine) is given as less than 0.01.
In series [10] (100 mg/kg, IV/100 mpk), `O=c1ncccn1[C@@H]1O[C@H](CO)[C@@H](O)[C@H]1O` [Compound 16, 1-((2R,3R,4S,5R)-3,4-dihydroxy-5-(hydroxymethyl)tetrahydrofuran-2-yl)pyrimidin-2(1H)-one, reference compound] gave an AUC of 54600 ng·h/mL, a clearance of 30.2 mL/min/kg and a half-life of 2.03 h. The Vd in series [10] (100 mg/kg, IV/100 mpk, read-out: Vss) stood at 0.91 L/kg. Moreover, in [10] (500 mg/kg, PO/500 mpk), the AUC was determined as 20900 ng·h/mL, the highest level (Cmax) was 22.3 µM, the bioavailability was found to be 8.4% and the half-life is 2.44 h. This compound also registered a TGI in the series on MOLT-4 xenograft (zebularine, dose not stated, FIG. 6) of 10%.
Consider `Nc1ccn([C@@H]2O[C@H](CO)[C@@H](O)[C@@H]2O)c(=O)n1` [Ara-C, cytarabine], for which the IC50 in series [1] (Homo sapiens) was found to be 290 nM; in series [5] (Homo sapiens), 20 nM; in [6] (Homo sapiens), 630 nM; in series [8] (Homo sapiens, MV4-11), 3100 nM; in series [9] (Homo sapiens, HepG2) it was 1910 nM. Moreover, the “TGI (%)” value in [3] (60 mpk) came to 60%. For the same compound, the “% BW change” value in series [7] (40 mpk, IP) is −6.2%. Also, the “% TGI” value in [7] (40 mpk, IP) turned out to be 46%.
Regarding `CC(C)C(=O)OC[C@H]1O[C@@H](n2cccnc2=O)[C@H](OC(=O)C(C)C)[C@@H]1OC(=O)C(C)C` [Compound 23, (2R,3R,4R,5R)-2-((isobutyryloxy)methyl)-5-(2-oxopyrimidin-1(2H)-yl)tetrahydrofuran-3,4-diyl bis(2-methylpropanoate)], in series [10] (75 mg/kg, PO/75 mpk), the AUC is 1800 ng·h/mL and the concentration peaked (Cmax) at 5.3 µM. In series [10] (150 mg/kg, PO/150 mpk), the AUC was determined as 6500 ng·h/mL, the peak level (Cmax) was 30.7 µM, the MRT was 1.3 h and the Tmax was found to be 0.5 h. In series [10] (150 mg/kg, PO/150 mpk), this compound gave a bioavailability of 16% and a half-life of 4.9 h. The same compound displayed a TGI with MOLT-4 xenograft (setting [12]) of 40%.
